In US10172355B2, “Safened herbicidal compositions including 4-amino-3-chloro-5-fluoro-6-(4-chloro-2-fluoro-3-methoxyphenyl)pyridine-2-carboxylic acid or a derivative thereof for use in rice” (Dow AgroSciences LLC, priority 2012, dated 2019):

Tests used:
Format in all cases: in vivo
[1] = system: ORYSA=Orysa sativa, Rice; experiment: In-water applied herbicides and safeners in transplanted paddy rice, visual injury; conditions: in-water
Experimental: Weed seeds or nutlets of the desired test plant species were planted in puddled soil (mud) prepared by mixing a shredded, non-sterilized mineral soil (50.5 percent silt, 25.5 percent clay, and 24 percent sand, with a pH of about 7.6 and an organic matter content of about 2.9 percent) and water at a 1:1 volumetric ratio. The prepared mud was dispensed in 365 mL aliquots into 16-ounce (oz.) non-perforated plastic pots with a surface area of 86.59 square centimeters (cm^2) leaving a headspace of 3 centimeters (cm) in each pot. Rice seeds were planted in Sun Gro MetroMix® 306 planting mixture, which typically has a pH of 6.0 to 6.8 and an organic matter content of about 30 percent, in plastic plug trays. Seedlings at the second or third leaf stage of growth were transplanted into 860 mL of mud contained in 32-oz. non-perforated plastic pots with a surface area of 86.59 cm^2 4 days prior to herbicide application. The paddy was created by filling the headspace of the pots with 2.5 to 3 cm of water. When required to ensure good germination and healthy plants, a fungicide treatment and/or other chemical or physical treatment was applied. The plants were grown for 4-22 days in a greenhouse with an approximate 14 h photoperiod which was maintained at about 29′C during the day and about 26° C. during the night. Nutrients were added as Osmocote® (17:6:10, N:P:K+minor nutrients) at 2 g per 16-oz. pot and 4 g per 32-oz. pot. Water was added on a regular basis to maintain the paddy flood, and supplemental lighting was provided with overhead metal halide 1000-Watt lamps as necessary. The plants were employed for testing when they reached the second or third true leaf stage.
(§1) Treatments consisted of the acid or esters of 4-amino-3-chloro-5-fluoro-6-(4-chloro-2-fluoro-3-methoxy-phenyl)pyridine-2-carboxylic acid (compound A) and various safeners alone and in combination. Forms of compound A were applied on an acid equivalent basis. Safener components were applied on an active ingredient or acid equivalent basis depending on the compound.
Treatment requirements for each compound or herbicidal component were calculated based upon the rates being tested, the concentration of active ingredient or acid equivalent in the formulation, an application volume of 2 mL per component per pot, and an application area of 86.59 cm^2 per pot.
For formulated compounds, a measured amount was placed in an individual 100 or 200 mL glass vial and was dissolved in a volume of 1.25% (v/v) Agri-Dex® crop oil concentrate to obtain application solutions.
For technical grade compounds, a weighed amount can be placed in an individual 100 to 200 mL glass vial and dissolved in a volume of acetone to obtain concentrated stock solutions. […] The concentrated stock solutions obtained can be diluted with an equivalent volume of an aqueous mixture containing 2.5% (v/v) crop oil concentrate so that the final application solutions contain 1.25% (v/v) crop oil concentrate.
Applications were made by injecting with a pipetter appropriate amounts of the application solutions, individually and sequentially, into the aqueous layer of the paddy. Control plants were treated in the same manner with the solvent blank. Applications were made so that all treated plant material received the same concentrations of acetone and crop oil concentrate.
The treated plants and control plants were placed in a greenhouse as described above and water was added as needed to maintain a paddy flood. After approximately 3 weeks the condition of the test plants as compared with that of the untreated plants was determined visually and scored on a scale of 0 to 100 percent where 0 corresponds to no injury or growth inhibition and 100 corresponds to complete kill.
Colby's equation was used to determine the herbicidal effects expected from the mixtures (Colby, S. R. 1967. Calculation of the synergistic and antagonistic response of herbicide combinations. Weeds 15:20-22.). […]

[2] = system: ORYSA=Orysa sativa, Rice; experiment: Postemergence foliar-applied herbicides and safeners in direct-seeded rice, visual injury; conditions: foliar; for Visual Injury (%) - 21 DAA ORYSA-‘Clearfield 171’ Obs / Visual Injury (%) - 21 DAA ORYSA-‘Neptune’ Obs / Visual Injury (%) - 21 DAA ORYSA-‘Wells’ Obs: Tables 1,2,7,8
Excerpt: (§2) Seeds or nutlets of the desired test plant species were planted in a soil matrix prepared by mixing a loam or sandy loam soil (e.g., 28.6 percent silt, 18.8 percent clay, and 52.6 percent sand, with a pH of about 5.8 and an organic matter content of about 1.8 percent) and calcareous grit in an 80 to 20 ratio. The soil matrix was contained in plastic pots with a surface area of 84.6 square centimeters (cm^2). When required to ensure good germination and healthy plants, a fungicide treatment and/or other chemical or physical treatment was applied. The plants were grown for 8-22 days in a greenhouse with an approximate 14 hr photoperiod which was maintained at about 29° C. during the day and 26° C. during the night. Nutrients (Peters Excel 15-5-15 5-Ca 2-Mg and iron chelate) were applied in the irrigation solution as needed and water was added on a regular basis. Supplemental lighting was provided with overhead metal halide 1000-Watt lamps as necessary. The plants were employed for testing when they reached the second or third true leaf stage.
as §1, with “safener components” for “safeners”
(§3) Treatment requirements were calculated based upon the rates being tested, the concentration of active ingredient or acid equivalent in the formulation, and a 12 mL application volume at a rate of 187 L/ha.
(§4) For treatments comprised of formulated compounds, measured amounts of compounds were placed individually in 25 mL glass vials and diluted in a volume of 1.25% (v/v) Agri-dex crop oil concentrated to obtain 12× stock solutions. […] Application solutions were prepared by adding an appropriate amount of each stock solution (e.g., 1 mL) and diluted to the appropriate final concentrations with the addition of 10 mL of an aqueous mixture of 1.25% (v/v) Agri-dex crop oil concentrate so that the final spray solutions contained 1.25% (v/v) Agri-dex crop oil concentrate.
(§5) For treatments comprised of technical compounds, weighed amounts were placed individually in 25 mL glass vials and dissolved in a volume of 97:3 v/v acetone/DMSO to obtain 12× stock solutions. […] Application solutions were prepared by adding an appropriate amount of each stock solution (e.g., 1 mL) and diluted to the appropriate final concentrations with the addition of 10 mL of an aqueous mixture of 1.5% (v/v) Agri-dex crop oil concentrate so that the final spray solutions contained 1.25% (v/v) Agri-dex crop oil concentrate. When technical materials were used, the concentrated stock solutions were added to the spray solutions so that the final acetone and DMSO concentrations of the application solutions were […], respectively.
(§6) For treatments comprised of formulated and technical compounds, weighed amounts of the technical materials were placed individually in 25 mL glass vials and dissolved in a volume of 97:3 v/v acetone/DMSO to obtain 12× stock solutions, and measured amounts of the formulated compounds were placed individually in 25 mL glass vials and diluted in a volume of 1.5% (v/v) Agri-dex crop oil concentrate or water to obtain 12× stock solutions. […] Application solutions were prepared by adding an appropriate amount of each stock solution (e.g., 1 mL) and diluted to the appropriate final concentrations with the addition of an appropriate amount of an aqueous mixture of 1.5% (v/v) Agri-dex crop oil concentrate so that the final spray solutions contained 1.25% (v/v) Agri-dex crop oil concentrate. When required, additional water and/or 97:3 v/v acetone/DMSO was added to individual application solutions so that the final acetone and DMSO concentrations of the application solutions being compared were 8.1% and 0.25%, respectively. […]

[3] = system: ECHCG=Echinochloa crus-galli; experiment: Postemergence foliar-applied herbicides and safeners, visual injury of weed; conditions: Echinochloa crus-galli, foliar, 480 h, read-out: Visual Injury (%) - 20 DAA ECHCG Obs, foliar; Compound A form 140 g ae/ha alone; trial of Tables 5,9,11,13
Excerpt: as §2
as §1, with “safener components” for “safeners”
as §3, §4, §5, §6

SMILES | Visual Injury (%) - 21 DAA ORYSA - ‘M202’ Obs ([1]; safener 140 g ai/ha alone) [%] | Visual Injury (%) - 21 DAA ORYSA - ‘M202’ Obs ([1]; safener 280 g ai/ha alone) [%] | Visual Injury (%) - 21 DAA ORYSA - ‘M202’ Obs ([1]; safener 560 g ai/ha alone) [%] | Visual Injury (%) - 21 DAA ORYSA-‘Clearfield 171’ Obs ([2]; safener 70 g ai/ha alone) [%] | Visual Injury (%) - 21 DAA ORYSA-‘Neptune’ Obs ([2]; safener 70 g ai/ha alone) [%] | Visual Injury (%) - 21 DAA ORYSA-‘Wells’ Obs ([2]; safener 70 g ai/ha alone) [%] | Visual Injury (%) - 21 DAA ORYSA-‘Clearfield 171’ Obs ([2]; safener 140 g ai/ha alone) [%] | Visual Injury (%) - 21 DAA ORYSA-‘Neptune’ Obs ([2]; safener 140 g ai/ha alone) [%] | Visual Injury (%) - 21 DAA ORYSA-‘Wells’ Obs ([2]; safener 140 g ai/ha alone) [%] | Visual Injury (%) - 21 DAA ORYSA-‘Neptune’ Obs ([2]; safener 280 g ai/ha alone) [%] | Visual Injury (%) - 21 DAA ORYSA-‘Wells’ Obs ([2]; safener 280 g ai/ha alone) [%] | Visual Injury (%) - 21 DAA ORYSA - ‘M202’ Obs ([1]; Compound A form 140 g ae/ha alone) [%] | Visual crop injury (%) at 140 g/ha ([2]; Oryza sativa, 480 h, read-out: Visual Injury (%) - 20 DAA ORYSA-‘Clearfield 171’ Obs, foliar, Compound A form 140 g ae/ha alone, trial of Tables 5,9,11,13) [%] | pest or weed control at 140 g/ha [3] [%]
CCOC(=O)C1=NOC(c2ccccc2)(c2ccccc2)C1 [Isoxadifen-ethyl, ethyl 4,5-dihydro-5,5-diphenyl-3-isoxazole-carboxylate] | 0 | 0 | 0 | 0 | 0 | 0 | 0 | 0 | 0 | 0 | 0 |  |  | 
COC(=O)c1nc(-c2ccc(Cl)c(OC)c2F)c(F)c(N)c1Cl [Methyl] |  |  |  |  |  |  |  |  |  |  |  | 17.5 | 12 | 98
